# Test results reported in PubChem BioAssay AID330 (DTP/NCI, 2004).
# Several values for one entry are separate records, joined by “and”; a condition that tells them apart may be missing. Identical values can stand only once. Inconclusive results and toxic doses are left out.
# Tested on: P388 leukemia ip, CD2F1 mice, survival T/C
# Assay: NCI In Vivo Anticancer Drug Screen. Data for tumor model P388 Leukemia (intraperitoneal) in CD2F1 (CDF1) mice
# Details: endpoint: median survival time, higher = longer survival
# Outline: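 Mice carrying the transplanted tumor received test compound or vehicle. Survival was recorded in each group, and the value is the treated-group measurement divided by that of the vehicle-treated control group.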
# [1] = dose: 50.0 mg/kg/injection, schedule: Q01DX005 (ip), vehicle: Klucel (hydroxypropylcellulose) (HPC)
# [2] = dose: 100.0 mg/kg/injection, schedule: Q01DX005 (ip), vehicle: Klucel (hydroxypropylcellulose) (HPC)
# [3] = dose: 200.0 mg/kg/injection, schedule: Q01DX005 (ip), vehicle: Klucel (hydroxypropylcellulose) (HPC)
# [4] = dose: 50.0 mg/kg/injection, schedule: Q01DX009 (ip), vehicle: saline
# [5] = dose: 100.0 mg/kg/injection, schedule: Q01DX009 (ip), vehicle: saline
# [6] = dose: 200.0 mg/kg/injection, schedule: Q01DX009 (ip), vehicle: saline
# [7] = dose: 50.0 mg/kg/injection, schedule: Q01DX005 (ip), vehicle: saline with Tween-80
# [8] = dose: 100.0 mg/kg/injection, schedule: Q01DX005 (ip), vehicle: saline with Tween-80
# [9] = dose: 200.0 mg/kg/injection, schedule: Q01DX005 (ip), vehicle: saline with Tween-80
# [10] = dose: 7.5 mg/kg/injection, schedule: Q01DX005 (ip), vehicle: saline with Tween-80
# [11] = dose: 15.0 mg/kg/injection, schedule: Q01DX005 (ip), vehicle: saline with Tween-80
# [12] = dose: 60.0 mg/kg/injection, schedule: Q01DX005 (ip), vehicle: saline with Tween-80
smiles,measurement,setting,value
C=CCC12CC(O)C(O)CC1(OC)OC(c1cc(OC)c(OC)c(OC)c1)C2C (centres undefined),T/C,"dose: 1.25 mg/kg/injection, schedule: Q01DX005 (ip), vehicle: acid diluted with saline",102 % of control
same,T/C,"dose: 2.5 mg/kg/injection, schedule: Q01DX005 (ip), vehicle: acid diluted with saline",102 % of control
same,T/C,"dose: 5.0 mg/kg/injection, schedule: Q01DX005 (ip), vehicle: acid diluted with saline",98 % of control
same,T/C,"dose: 10.0 mg/kg/injection, schedule: Q01DX005 (ip), vehicle: acid diluted with saline",102 % of control
Nc1nc2ncc(CCCl)cc2c(=O)[nH]1,T/C,[1],102 % of control
same,T/C,[2],123 % of control
same,T/C,[3],107 % of control
COc1ccccc1NC(=O)CC(=O)c1ccc([N+](=O)[O-])cc1,T/C,"dose: 6.25 mg/kg/injection, schedule: Q04DX003 (ip), vehicle: saline sonified",100 % of control
same,T/C,"dose: 12.5 mg/kg/injection, schedule: Q04DX003 (ip), vehicle: saline sonified",100 % of control
same,T/C,"dose: 25.0 mg/kg/injection, schedule: Q04DX003 (ip), vehicle: saline sonified",100 % of control
c1cc2cc(-c3ccc4oc(C5=NCCN5)cc4c3)[nH]c2cc1C1=NCCN1,T/C,[1],163 % of control
same,T/C,[2],160 % of control
same,T/C,[3],193 % of control
C1CNNCCNN1,T/C,[4],112 % of control
same,T/C,[5],106 % of control and 108 % of control and 90 % of control
same,T/C,[6],109 % of control and 115 % of control and 89 % of control
same,T/C,"dose: 400.0 mg/kg/injection, schedule: Q01DX009 (ip), vehicle: saline",112 % of control and 120 % of control and 93 % of control
same,T/C,"dose: 800.0 mg/kg/injection, schedule: Q01DX009 (ip), vehicle: saline",121 % of control
CCOP(=O)(OCC)C1OCC(O)C(C2OC(P(=O)(OCC)OCC)OCC2O)O1 (centres undefined),T/C,[4],109 % of control
same,T/C,[5],112 % of control
same,T/C,[6],112 % of control
CCOC(=O)c1c(N)c(=O)oc2c3c(c(O)cc12)OCO3,T/C,[1],94 % of control
same,T/C,[2],89 % of control
CCOC(=O)C(C(C)O)C1CC=CC1 (centres undefined),T/C,[7],108 % of control
same,T/C,[8],100 % of control
same,T/C,[9],104 % of control
CN(C)c1ccc(/C=N/NC(N)=S)nc1,T/C,"dose: 50.0 mg/kg/injection, schedule: Q04DX003 (ip), vehicle: saline with Tween-80",150 % of control
O=C(CCc1ccccc1)c1c(O)c(Cc2ccccc2O)c2c(c1O)Cc1ccccc1O2,T/C,"dose: 1.5 mg/kg/injection, schedule: Q01DX009 (ip), vehicle: Klucel (hydroxypropylcellulose) (HPC)",100 % of control
same,T/C,"dose: 3.0 mg/kg/injection, schedule: Q01DX009 (ip), vehicle: Klucel (hydroxypropylcellulose) (HPC)",98 % of control
same,T/C,"dose: 6.0 mg/kg/injection, schedule: Q01DX009 (ip), vehicle: Klucel (hydroxypropylcellulose) (HPC)",98 % of control
same,T/C,"dose: 12.0 mg/kg/injection, schedule: Q01DX009 (ip), vehicle: Klucel (hydroxypropylcellulose) (HPC)",98 % of control
CC(NC(=O)C(Cl)Cl)C(=O)O (centres undefined),T/C,[1],96 % of control
same,T/C,[2],99 % of control
same,T/C,[3],96 % of control
CCc1ccc(C2(C)C(=O)c3ccccc3C2=O)cc1,T/C,"dose: 100.0 mg/kg/injection, schedule: Q04DX002 (ip), vehicle: saline",101 % of control
same,T/C,"dose: 200.0 mg/kg/injection, schedule: Q04DX002 (ip), vehicle: saline",100 % of control
same,T/C,"dose: 400.0 mg/kg/injection, schedule: Q04DX002 (ip), vehicle: saline",104 % of control
O=[N+]([O-])c1ccc(/C(=C/c2ccc(Cl)cc2Cl)S(=O)(=O)C(Cl)Cl)o1,T/C,"dose: 50.0 mg/kg/injection, schedule: Q01DX009 (ip), vehicle: suspension in saline",86 % of control
same,T/C,"dose: 100.0 mg/kg/injection, schedule: Q01DX009 (ip), vehicle: suspension in saline",96 % of control
same,T/C,"dose: 200.0 mg/kg/injection, schedule: Q01DX009 (ip), vehicle: suspension in saline",103 % of control
CC1(C)COC(CCCCCO)=N1,T/C,"dose: 50.0 mg/kg/injection, schedule: Q01DX009 (ip), vehicle: saline with Tween-80",103 % of control
same,T/C,"dose: 100.0 mg/kg/injection, schedule: Q01DX009 (ip), vehicle: saline with Tween-80",97 % of control
same,T/C,"dose: 200.0 mg/kg/injection, schedule: Q01DX009 (ip), vehicle: saline with Tween-80",92 % of control
NC[CH2][Sn]([c]1ccccc1)([CH]1CCCCC1)[CH]1CCCCC1,T/C,"dose: 3.75 mg/kg/injection, schedule: Q01DX005 (ip), vehicle: saline with Tween-80",100 % of control
same,T/C,[10],93 % of control
same,T/C,[11],99 % of control
same,T/C,[12],92 % of control
COC1=CCC2=C(CCN(C)C2Cc2ccc(OC)cc2)C1 (centres undefined),T/C,"dose: 12.5 mg/kg/injection, schedule: Q01DX005 (ip), vehicle: Klucel (hydroxypropylcellulose) (HPC)",97 % of control
same,T/C,"dose: 25.0 mg/kg/injection, schedule: Q01DX005 (ip), vehicle: Klucel (hydroxypropylcellulose) (HPC)",96 % of control
same,T/C,[1],100 % of control
NCCSc1nc(-c2ccccc2)c(-c2ccccc2)o1,T/C,"dose: 50.0 mg/kg/injection, schedule: Q01DX009 (ip), vehicle: Klucel (hydroxypropylcellulose) (HPC)",100 % of control
same,T/C,"dose: 100.0 mg/kg/injection, schedule: Q01DX009 (ip), vehicle: Klucel (hydroxypropylcellulose) (HPC)",100 % of control
same,T/C,"dose: 200.0 mg/kg/injection, schedule: Q01DX009 (ip), vehicle: Klucel (hydroxypropylcellulose) (HPC)",101 % of control
CC1(C)CC(=O)N(Cc2ccccc2)N1C(=O)c1ccccc1,T/C,"dose: 50.0 mg/kg/injection, schedule: Q01DX001 (ip), vehicle: saline with Tween-80",100 % of control
same,T/C,"dose: 100.0 mg/kg/injection, schedule: Q01DX001 (ip), vehicle: saline with Tween-80",95 % of control
same,T/C,"dose: 200.0 mg/kg/injection, schedule: Q01DX001 (ip), vehicle: saline with Tween-80",100 % of control
COc1cc2c(c(O)c1O)C(=O)c1c(O)cc(C)cc1C2=O,T/C,"dose: 5.0 mg/kg/injection, schedule: Q01DX009 (ip), vehicle: saline with Tween-80",108 % of control
same,T/C,"dose: 10.0 mg/kg/injection, schedule: Q01DX009 (ip), vehicle: saline with Tween-80",117 % of control
same,T/C,"dose: 20.0 mg/kg/injection, schedule: Q01DX009 (ip), vehicle: saline with Tween-80",108 % of control
O=C1CCc2cc([N+](=O)[O-])cc3c2N1CCC3,T/C,[1],95 % of control and 96 % of control
same,T/C,[2],104 % of control
same,T/C,[3],98 % of control and 96 % of control
O=C(CCl)Nc1cccc(CCC(=O)c2ccccc2NC(=O)CCl)c1,T/C,"dose: 15.0 mg/kg/injection, schedule: Q01DX005 (ip), vehicle: saline",102 % of control
same,T/C,"dose: 30.0 mg/kg/injection, schedule: Q01DX005 (ip), vehicle: saline",106 % of control
same,T/C,[12],100 % of control
same,T/C,"dose: 60.0 mg/kg/injection, schedule: Q01DX005 (ip), vehicle: saline",100 % of control
O=CC1C(=O)NC(=O)NC1=O,T/C,"dose: 25.0 mg/kg/injection, schedule: Q04DX003 (ip), vehicle: saline",112 % of control
same,T/C,"dose: 50.0 mg/kg/injection, schedule: Q04DX003 (ip), vehicle: saline",100 % of control
same,T/C,"dose: 100.0 mg/kg/injection, schedule: Q04DX003 (ip), vehicle: saline",114 % of control
Nc1nnc2n(N)cnn12,T/C,"dose: 100.0 mg/kg/injection, schedule: Q04DX002 (ip), vehicle: water",114 % of control
same,T/C,"dose: 200.0 mg/kg/injection, schedule: Q04DX002 (ip), vehicle: water",109 % of control
same,T/C,"dose: 400.0 mg/kg/injection, schedule: Q04DX002 (ip), vehicle: water",106 % of control
O=C1CC2C(=O)NC(=O)C2C(=O)N1 (centres undefined),T/C,[7],104 % of control
same,T/C,[8],101 % of control
same,T/C,[9],99 % of control
Cc1ccc(-[n+]2c3cc(N)c(C)cc3nc3cc(C)c(Nc4ccccc4)cc32)cc1,T/C,"dose: 25.0 mg/kg/injection, schedule: Q01DX005 (ip), vehicle: saline + Tween-80 + alcohol",109 % of control
same,T/C,"dose: 25.0 mg/kg/injection, schedule: Q01DX005 (ip), vehicle: saline with Tween-80",101 % of control
same,T/C,"dose: 50.0 mg/kg/injection, schedule: Q01DX005 (ip), vehicle: saline + Tween-80 + alcohol",116 % of control
same,T/C,[7],119 % of control and 122 % of control
same,T/C,[8],119 % of control and 122 % of control
same,T/C,[9],119 % of control
CC(=O)Nc1n[nH]c(C)n1,T/C,"dose: 25.0 mg/kg/injection, schedule: Q01DX005 (ip), vehicle: saline",97 % of control
same,T/C,"dose: 50.0 mg/kg/injection, schedule: Q01DX005 (ip), vehicle: saline",106 % of control
same,T/C,"dose: 100.0 mg/kg/injection, schedule: Q01DX005 (ip), vehicle: saline",97 % of control
C#CCSC1=NS(=O)(=O)c2ccccc21,T/C,[10],115 % of control
same,T/C,[11],115 % of control
same,T/C,"dose: 30.0 mg/kg/injection, schedule: Q01DX005 (ip), vehicle: saline with Tween-80",98 % of control and 115 % of control
same,T/C,[12],106 % of control
COc1cc2nncc(Cl)c2cc1OC,T/C,[1],101 % of control
